Consider five molecules from patent US8377875B2, “Therapeutics based on tau/microtubule dynamics” (Ramot at Tel-Aviv University Ltd., priority 2007, dated 2013).

Ends that are not written are not given here.

Data set [1] relates to tubulin tyrosination cycle in rat pheochromocytoma cells (PC12). Description: Cell-based tubulin tyrosination cycle assay in PC12 cells (confocal microscopy, ELISA). Particulars: 2 hr.
Description: Changes in the tubulin tyrosination cycle were used to study the effects of NAP on microtubule dynamics (Gozes and Littauer, Nature. 276:411-413 (1978)). This cycle includes the slow removal of the C-terminal tyrosine of microtubule alpha tubulin, resulting in Glu-tubulin and the fast re-addition of tyrosine (Tyr) to soluble alpha-tubulin in a reaction requiring ATP. […] A cell-based assay for anti-microtubule activity that relies on the properties above allows the identification of both microtubule-destabilizing and microtubule-stabilizing agents. The assay allows assessment of the relative degree of stable microtubule versus dynamic microtubules (Vassal et al., J Biomol Screen, 11: 377-389 (2006)) using confocal microscopy as well as quantitative Enzyme-Linked Immunosorbent Assay (ELISA).
Rat pheochromocytoma cells (PC12) were grown in Dulbecco's modified eagles medium (DMEM) supplemented with 5% fetal bovine serum and 10% donor horse serum 1% penicillin—streptomycin, 1% L-Glutamine (Beit Haemek, Israel) in an atmosphere of 5% CO2 and 95% air at 37° C. […] Cells were seeded on 96, 48 or 24 well plates in 100, 300 or 500 μl of medium volumes respectively and allowed to grow for 48 hr.
In short, medium was aspirated and cells were incubated for 3 min with 100, 300 or 500 μl warm MTSBT (Pipes pH 6.8 80 mM, EGTA 4 mM, MgCl2 1 mM, Triton X-100 0.5% v/v) buffer followed by 6 min with 100, 300 or 500 μl cold methanol (−20° C.). Blocking followed a re-hydration in cold TBST (NaCl 0.15 M, Tris-Cl pH 7.4, Triton X-100 0.1% v/v) followed by 5% non fat milk in TBST 10 min at room temp or −50 μg/ml of Goat IgG in AbDil [TBST+2% bovine serum albumin (Sigma, Rehovot Israel)] 10 min at room temp. For microtubule and nuclear staining, 50 μl (per well) of rat monocloncal antibodies detecting tyrosinated tubulin (YL1/2, Abcam, Cambridge, UK) and rabbit polyclonal antibodies detecting glutaminated tubulin (Abcam, Cambridge, UK) at 1:1000 dilution were added. After a 2 hr (37° C.) incubation the cells were washed twice with TBST or TBS and 50 μl per well of secondary goat anti-rat coupled by Cynine 3—Cy3 (1:1000), Cy2 goat anti rabbit (1:1000) (Jackson ImmunoResearch, West Grove, Pa., U.S.A), and Hoechst 33258 (Sigma) 1 μg/ml were added. Following one hour incubation at 37° C. and 3 washes in TBST or TBS, fluorescence was measured using Tecan Microplate fluorescent reader (Neoteck scientific instrumentation, Switzerland) infinite F200 and Magellan software version 6.3.
For visual inspection, cells were seeded on microscope cover slips, mounted on slides and inspected using confocal microscopy as before (Divinski et al. (2006)). […]
Data set [2] concerns the target T1, tau-three microtubule binding domain repeats (Homo sapiens, UniProt P10636).
T1 construct: made in house
The experiment in a line: Dot blot analysis of peptide binding to tau. The following applies: peptide 10^−3M spotted, 2 μM tau. On the procedure:
For Dot Blot analysis, 5 μl of each sample [vasoactive intestinal peptide VIP (Dangoor et al., Regul Pept, 137: 42-49 (2006)); negative control and NAP 10^−3M) was applied onto the nitrocellulose membrane (Schleicher & Schuell, Dassel, Germany), and was left to dry (2 hr, room temperature). The membrane was further incubated with 2 μM tau-three microtubule binding domain repeats (1.5 hr, room temperature). The non-specific sites were blocked by soaking in a blocking solution (10 mM Tris, 6 mM NaCl, 0.05% Tween 20) that was supplemented with 5% low-fat milk (1 hr at room temperature). The membrane was incubated with primary antibody (tau5 antibody 1:1000), dissolved in 5% milk in blocking solution (12 hours at 4 C). The membrane was then washed three times with the blocking solution (3×10 min), incubated with secondary antibody conjugated with horseradish peroxidase (HRP) (1 hr at room temperature) and washed again three times with blocking solution (10 min×3). The membrane was incubated with ECL reagent (Western blotting detection system; Amersham Biosciences) for 1 min, covered and exposed Biomax Light Film (Kodak, Rochester, N.Y., USA). […]

Data set [3] deals with mixed neuroglial cultures from newborn rat cortex. Description: Neuroprotection against beta-amyloid 1-42 in mixed neuroglial cultures, MAP2 ELISA. It is filed as cell-based. The following applies: 0.25 μM beta-amyloid 1-42, 5 days, n=10 per data point. Background: ELISA stands for enzyme-linked immunosorbent assay.
The subject of data set [4] is tubulin. Description: Tubulin-NAP binding.
In the next data set the test system is microtubule formation. Particulars: cited from earlier work.
In a further data set the target is tau (Homo sapiens, UniProt P10636). Description: Affinity chromatography on NAP-affinity column with tau-specific western blot. In kind it is binding. For orientation: A western blot detects proteins with antibodies after separation by electrophoresis.
Chain of tau (P10636 1-441 isoform P10636-8): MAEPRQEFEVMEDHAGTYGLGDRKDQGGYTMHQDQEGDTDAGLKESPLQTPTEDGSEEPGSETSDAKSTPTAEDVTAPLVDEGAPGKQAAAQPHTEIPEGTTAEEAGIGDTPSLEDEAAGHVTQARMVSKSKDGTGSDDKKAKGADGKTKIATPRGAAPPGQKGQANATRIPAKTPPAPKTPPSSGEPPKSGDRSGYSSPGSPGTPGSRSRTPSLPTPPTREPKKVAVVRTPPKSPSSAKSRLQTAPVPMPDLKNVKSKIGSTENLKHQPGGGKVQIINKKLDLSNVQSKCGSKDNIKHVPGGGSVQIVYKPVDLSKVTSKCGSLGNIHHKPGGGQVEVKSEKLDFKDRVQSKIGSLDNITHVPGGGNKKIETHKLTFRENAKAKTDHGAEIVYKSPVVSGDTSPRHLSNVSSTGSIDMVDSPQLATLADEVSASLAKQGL
Data set [5] has as its system MAP-2 expression in neuronal cells. The following applies: cited from earlier work.
For a further data set, the target named is T2, beta III tubulin (Homo sapiens, UniProt Q13509).
T2 construct: purchased Cytoskeleton (Denver, Colo., USA)
T2 sequence (Q13509 whole entry): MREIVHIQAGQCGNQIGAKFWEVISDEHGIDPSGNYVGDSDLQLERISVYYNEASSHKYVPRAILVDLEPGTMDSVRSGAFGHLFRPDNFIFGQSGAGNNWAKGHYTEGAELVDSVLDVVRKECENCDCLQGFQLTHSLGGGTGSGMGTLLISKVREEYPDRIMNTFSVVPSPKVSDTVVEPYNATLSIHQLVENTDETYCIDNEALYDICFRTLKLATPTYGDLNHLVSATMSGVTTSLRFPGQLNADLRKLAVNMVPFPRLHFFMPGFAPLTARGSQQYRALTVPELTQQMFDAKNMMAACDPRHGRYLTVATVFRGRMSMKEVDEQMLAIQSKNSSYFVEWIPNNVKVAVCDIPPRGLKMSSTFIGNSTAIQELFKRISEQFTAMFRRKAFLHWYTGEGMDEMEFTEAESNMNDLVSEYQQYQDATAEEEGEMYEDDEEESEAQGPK
T2 sequence (Q71U36 whole entry partner): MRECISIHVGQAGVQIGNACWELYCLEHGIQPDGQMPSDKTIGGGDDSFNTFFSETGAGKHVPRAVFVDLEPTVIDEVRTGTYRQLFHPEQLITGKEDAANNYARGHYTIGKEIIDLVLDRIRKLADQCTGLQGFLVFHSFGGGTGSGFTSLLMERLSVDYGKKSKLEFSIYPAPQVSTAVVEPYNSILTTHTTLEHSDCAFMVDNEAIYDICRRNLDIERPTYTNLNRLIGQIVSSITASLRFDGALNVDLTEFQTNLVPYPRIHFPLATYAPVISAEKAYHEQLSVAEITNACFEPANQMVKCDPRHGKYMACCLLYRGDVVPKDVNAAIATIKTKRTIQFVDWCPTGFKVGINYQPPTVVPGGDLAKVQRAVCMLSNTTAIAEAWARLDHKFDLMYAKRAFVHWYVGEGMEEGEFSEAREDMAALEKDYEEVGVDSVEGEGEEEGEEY
Description: Microtubule pelleting assay, western blot with beta III tubulin antibodies. In kind it is biochemical. Particulars: NAP 1 pM, tubulin 10 μM, tau 2.5 μM; vs absence of NAP. On the procedure:
FIG. 7 illustrates the effect of NAP (1 pM) on beta III tubulin precipitation (10 μM) with tau (2.5 μM) during microtubule (MT) assembly. The experiment was carried out as in FIG. 5, except that beta III antibodies were used. S=supernatant; P=pellet. The reduction of beta III tubulin in the pellet was significant (P<0.05). Beta III tubulin is enriched in neurons (Banerjee et al., J. Biol. Chem. 265: 1794-1799 (1990); Joshi and Cleveland, Cell Motil. Cytoskeleton 16:159-163 (1990)).
Densitometric scanning of the western blots (e.g. FIG. 7) including 8 independent experiments are depicted on the figures. S=supernatant; P=pellet; western blot anti beta III tubulin, 1:1, 400. The reduction reached significance (*P<0.05).
(§1) Tubulin, tau and NAP were prepared as described in Example 1. The microtubule pelleting assay was also carried out as in Example 1.
The resulting pellet was subjected to 12.0% polyacrylamide gel containing SDS (Kar et al. (2003)). Gels were either stained for proteins (Coomassie Brilliant Blue) or subjected to western analysis to specifically identify and quantitate tubulin in the microtubule pellet. […]

A further data set relates to tau hyperphosphorylation. Particulars: animal models; cited from earlier work.
Data set [6] deals with tubulin. The following applies: cited from earlier work.
The test system of data set [7] is model of fetal alcohol syndrome. Particulars: in vivo, ip; cited from earlier work.
A further data set concerns cell cultures. Particulars: cited from earlier work.
Data set [8] relates to closed head injury in mice. The following applies: cited from earlier work.
The subject of a further data set is normal aging rats. The following applies: intranasal administration; cited from earlier work.
Data set [9] deals with tubulin. The experiment in a line: Microtubule pelleting assay, western blot with polyclonal tubulin antibodies. It is filed as biochemical. Particulars: NAP 1 pM, tubulin 10 μM, tau ~2.5 μM. How it is done: FIG. 9 illustrates the effect of NAP on tubulin precipitation (10 μM) with tau (2.5 μM) during microtubule (MT) assembly. The experiment was carried out as in FIG. 5, except that polyclonal tubulin antibodies were used. (Gozes et al., FEBS Lett. 73(1):109-14 (1977)).
Densitometric scanning of the western blots (e.g. FIG. 9) including 6 independent experiments are depicted on the figure. S=supernatant; P=pellet; western blot anti tubulin, 1:1, 400-2000.
as §1
The resulting pellet was subjected to 12.0% polyacrylamide gel containing SDS (Kar et al. (2003)). Gels were either stained for proteins (Coomassie Brilliant Blue) or subjected to western analysis to specifically identify and quantitate tubulin in the microtubule pellet. Three different antibodies were used, rabbit anti tubulin (Gozes et al. (1977)), mouse monoclonal antibodies that prefers neuronal beta tubulin species, TUB2.1 (Boss et al., Brain Res, 433:199-218 (1987); Gozes and Barnstable (1982)) and tubulin beta III (neuronal enriched) antibodies as before (Divinski et al. (2006)). Western blotting was performed as before (Divinski et al. (2006)).

For data set [10] the following is noted: in vivo; cited from earlier work.
In the next data set the test system is beta tubulin. Description: Microtubule pelleting assay, western blot with TUB2.1 beta tubulin antibody. It is filed as biochemical. The following applies: NAP 1 pM, tubulin 10 μM, tau ~2.5 μM; 6 independent experiments. How it is done: FIG. 5 illustrates the effect of NAP on beta tubulin precipitation (10 μM) with tau (2.5 μM) during microtubule (MT) assembly. NAP (1 pM) incubation apparently reduces beta tubulin in the microtubule pellet. The monoclonal antibody used (TUB2.1) interacts specifically with beta tubulin species. Gozes and Barnstable, Proc Natl Acad Sci USA, 79: 2579-2583 (1982). Blots were performed as before (Divinski et al., J Neurochem, 98: 973-984 (2006)). S=supernatant; P=pellet.
Densitometric scanning of the western blots (e.g. FIG. 5) including 6 independent experiments are depicted on the figure. S=supernatant; P=pellet; western blot antitubulin 2.1, 1:1, 400.
as §1
The resulting pellet was subjected to 12.0% polyacrylamide gel containing SDS (Kar et al. (2003)). Gels were either stained for proteins (Coomassie Brilliant Blue) or subjected to western analysis to specifically identify and quantitate tubulin in the microtubule pellet. Three different antibodies were used, rabbit anti tubulin (Gozes et al. (1977)), mouse monoclonal antibodies that prefers neuronal beta tubulin species, TUB2.1 (Boss et al., Brain Res, 433:199-218 (1987); Gozes and Barnstable (1982)) and tubulin beta III (neuronal enriched) antibodies as before (Divinski et al. (2006)). […]

A further data set relates to NIH 3T3 fibroblasts. The following applies: cited from earlier work.
In data set [11] the test system is microtubules (tubulin and tau). The experiment in a line: Transmission electron microscopy of microtubules from mixtures of tubulin, tau and NAP. It is filed as biochemical. On the procedure: FIGS. 3A-E show electron microscopy studies were carried out on mixtures of tubulin, tau, and NAP. […] FIGS. 3A and 3C are 25,000× magnification; FIGS. 3B and 3D are 200,000× magnification. […] Additional electron microscopy studies were carried out on mixtures of NAP (1 pM, lanes 4,5,6. […]), tubulin 6 μM (lanes1,4, FIG. 3E) or 10 μM (lanes 2,3,5,6, FIG. 3E) and tau. Tubulin was obtained from Cytoskeleton (Denver, Colo., USA) and tau (0.7 μM) was purified from recombinant cDNA obtained from Professor Linda Amos (Kar et al., Embo J, 22: 70-77 (2003).). […] The box plot represents 3 different experiments (control vs. NAP-treated). Each experiment consists of either three or four repeats. P<0.001. The density of the microtubules was estimated by counting 20-23 fields in each of the experimental samples.
Transmission electron microscopy was carried out to identify and quantitate microtubule size and appearance in the presence and absence of NAP (in the microtubule pellets described above). Grids were stained with […].

The next data set has as its system ischemic injury. Particulars: after ischemic injury; cited from earlier work.

T1 sequence (P10636 1-410 isoform P10636-5): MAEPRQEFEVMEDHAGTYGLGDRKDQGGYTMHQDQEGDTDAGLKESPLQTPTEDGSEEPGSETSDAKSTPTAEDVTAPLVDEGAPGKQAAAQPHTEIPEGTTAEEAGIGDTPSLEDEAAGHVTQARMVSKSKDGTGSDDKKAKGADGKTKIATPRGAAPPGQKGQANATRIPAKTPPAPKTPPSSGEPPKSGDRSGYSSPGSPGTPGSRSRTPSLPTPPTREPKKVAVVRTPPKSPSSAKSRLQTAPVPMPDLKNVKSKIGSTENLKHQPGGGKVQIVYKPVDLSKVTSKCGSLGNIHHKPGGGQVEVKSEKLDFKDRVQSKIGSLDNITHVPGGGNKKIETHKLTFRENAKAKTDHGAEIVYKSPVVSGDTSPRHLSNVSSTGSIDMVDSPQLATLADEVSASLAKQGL

Regarding `CC(=O)O[C@H]1C(=O)[C@@]2(C)[C@H]([C@H](OC(=O)c3ccccc3)[C@]3(O)C[C@H](OC(=O)[C@H](O)[C@@H](NC(=O)c4ccccc4)c4ccccc4)C(C)=C1C3(C)C)[C@]1(OC(C)=O)CO[C@@H]1C[C@@H]2O` [paclitaxel, reference compound], the detyrosinated tubulin entry in data set [1] (paclitaxel 5 μM) is recorded as “significantly increased detyrosinated tubulin”.

In the case of “vasoactive intestinal peptide [VIP, reference compound]”, the “binding to tau (dot blot)” value in [2] is “does not interact”.

As for “TAPVPMPD [a NAP-like, tau-derived peptide]”, the “concentrations at which neuronal survival was enhanced (MAP2 staining)” value in [3] was 10^−19-10^−9 M.

Consider SALLRSIPA [ADNF-9], for which the “effect on tubulin-NAP binding” value in the data set on tubulin [4] is recorded as “diminish tubulin-NAP binding”.

As to Asn-Ala-Pro-Val-Ser-Ile-Pro-Gln [NAP], the “microtubule formation (turbidity)” value in the data set on microtubule formation is given as “stimulate microtubule formation”. The “binding to tau (affinity chromatography)” value with tau is reported as “binds to tau”. In addition, in data set [5], the MAP-2 expression entry is given as “increases MAP-2 expression”. Further, the “dose response for activation of the tyrosination cycle (ELISA)” value in [1] (10^−19 M—10^−7M) is recorded as “biphasic dose response curve”. Also, in [1] (NAP 10^−11M), the “activity on the tubulin tyrosination cycle” value is listed as “not active”. In data set [1] (NAP 10^−15M), the “tyrosinated and detyrosinated alpha tubulin” value was “significantly increased tyrosinated and detyrosinated alpha tubulin”. Moreover, the “decrease in tubulin beta III in the microtubule pellet” value with beta III tubulin is “approximately 2 fold”. In the data set with tau hyperphosphorylation, the tau hyperphosphorylation entry was “protected against tau hyperphosphorylation”. For the same molecule, the binding to tubulin result with tubulin [6] was “binds tubulin”. Also, in data set [7], the “fetal death after intraperitoneal injection of alcohol” value is “inhibited”. Also, the “neuroprotective activity against a wide variety of toxins” value with cell cultures is “neuroprotective activity at femtomolar concentrations”. Also, in [2], the “binding to tau (dot blot)” value is reported as “can bind directly to tau”. Moreover, the “damage caused by closed head injury” value in data set [8] was “reducing damage”. Besides, in the data set with normal aging rats, the “performance in the Morris water maze” value is “improved performance”. Further, in the data set with tubulin [9], the “decrease of tubulin in the microtubule pellet (polyclonal anti-tubulin antibodies)” value is given as “no significant decrease”. Also, the “crossing of the blood-brain barrier” value in [10] is on record as “can cross the blood-brain barrier”. Further, in the data set on beta tubulin, the “reduction of beta tubulin in the microtubule pellet (TUB2.1 antibody)” value is “not significant”. For the same molecule, in the data set with NIH 3T3 fibroblasts, the “interaction with NIH 3T3 fibroblasts or other dividing cells” value was “does not interact”. For the same molecule, the “microtubule density (electron microscopy)” value in [11] (NAP 1 pM, tubulin 6 or 10 μM, tau 0.7 μM, vs control w/o NAP) is recorded as “increased microtubule density”. The “curves and microtubule length (electron microscopy)” value in [11] (NAP-treated samples vs control w/o NAP) was “increases”. Besides, the “infarct volume and motor function deficits” value with ischemic injury is “reduced infarct volume and motor function deficits”.
